Measured values: patent US9708336B2, “Metallo-beta-lactamase inhibitors” (priority 2014, dated 2017)
Read-outs that look alike come from different tables or passages of the source.

Columns and labels:
NDM-1 = NDM-1 (Klebsiella pneumoniae, UniProt C7C422); assay: biochemical; assay type: biochemical; settings: read-out: NDM-1 IC50
IMP-1 = IMP-1 (Serratia marcescens, UniProt P52699); assay: biochemical; assay type: biochemical; settings: read-out: IMP-1 IC50
VIM-1 = VIM-1 (Pseudomonas aeruginosa (strain ATCC 15692 / DSM 22644 / CIP 104116 / JCM 14847 / LMG 12228 / 1C / PRS 101 / PAO1), UniProt A0A0F7KYQ8); assay: Enzyme activity: determination of IC50, fluorescence assay with CCF2-FA substrate (VIM-1); assay type: biochemical
[1] = system: Escherichia coli expressing NDM-1 (CLB30016); assay: Antibiotic potentiation activity: synergistic concentration (MITC95) with imipenem, OD600 growth; assay type: cell-based; settings: for Escherichia coli expressing NDM-1 (CLB 30016) MITC95: concentration giving 95% inhibition of bacterial growth
How it was run: (§1)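 Growth after 22–24 h at 35 °C is measured spectrophotometrically for bacteria incubated with compound plus imipenem (4 μg/ml in-well, or 1 μg/ml). Cells come from overnight agar colonies resuspended in saline and diluted 1:100 in 1.1× CAMHB.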

[2] = system: Klebsiella pneumoniae expressing VIM-1 (IHMA599644); assay: as above; assay type: cell-based; settings: for Klebsiella pneumoniae expressing VIM-1 (IHMA 599644) MITC95: concentration giving 95% inhibition of bacterial growth
How it was run: as §1

[3] = system: Serratia marcescens expressing IMP-1 (CL5741); assay: as above; assay type: cell-based; settings: for Serratia marcescens expressing IMP-1 (CL5741) MITC95: concentration giving 95% inhibition of bacterial growth
How it was run: as §1

[4] = NDM-1 enzyme, CCF2-FA substrate
[5] = IMP-1 enzyme, CCF2-FA substrate
[6] = VIM-1 enzyme, CCF2-FA substrate, read-out: VIM-1 IC50
[7] = (CLB30016, NDM-1), 95% growth inhibition
[8] = Klebsiella pneumoniae IHMA599644 (VIM-1), 95% growth inhibition
[9] = Serratia marcescens CL5741 (IMP-1), 95% growth inhibition
[10] = NDM-1 enzyme, CCF2-FA fluorescence assay
[11] = IMP-1 enzyme, CCF2-FA fluorescence assay
[12] = VIM-1 IC50, VIM-1 enzyme, CCF2-FA fluorescence assay
[13] = Escherichia coli expressing NDM-1 (CLB30016), 95% growth inhibition
[14] = Klebsiella pneumoniae expressing VIM-1 (IHMA599644), 95% growth inhibition
[15] = Serratia marcescens expressing IMP-1 (CL5741), 95% growth inhibition
[16] = fluorescence assay with CCF2-FA substrate
[17] = VIM-1 IC50, fluorescence assay with CCF2-FA substrate
[18] = CLB30016 (NDM-1), 95% inhibition of bacterial growth
[19] = IHMA599644 (VIM-1), 95% inhibition of bacterial growth
[20] = CL5741 (IMP-1), 95% inhibition of bacterial growth
[21] = fluorescence assay with CCF2-FA substrate, read-out: VIM-1 IC50
[22] = VIM-1 IC50, VIM-1 enzyme, CCF2-FA substrate

Chain of NDM-1 (C7C422 whole entry, looked up, species assumed): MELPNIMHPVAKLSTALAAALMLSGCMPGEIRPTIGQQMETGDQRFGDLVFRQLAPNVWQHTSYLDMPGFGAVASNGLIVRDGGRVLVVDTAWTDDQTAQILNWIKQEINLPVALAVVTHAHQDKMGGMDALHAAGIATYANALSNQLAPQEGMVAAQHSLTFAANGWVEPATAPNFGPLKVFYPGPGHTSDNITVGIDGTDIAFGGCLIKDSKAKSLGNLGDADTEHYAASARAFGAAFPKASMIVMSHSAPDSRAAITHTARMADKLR
Chain of IMP-1 (P52699 whole entry, looked up): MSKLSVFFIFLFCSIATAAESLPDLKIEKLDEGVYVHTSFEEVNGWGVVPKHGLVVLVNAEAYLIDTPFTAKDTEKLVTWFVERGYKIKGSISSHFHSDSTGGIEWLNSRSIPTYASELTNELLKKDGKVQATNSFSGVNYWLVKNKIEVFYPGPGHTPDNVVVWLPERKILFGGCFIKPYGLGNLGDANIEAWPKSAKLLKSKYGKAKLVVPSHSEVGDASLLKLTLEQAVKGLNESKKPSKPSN

## NC[C@H]1CC[C@@H](Cc2ccc(-c3ccc(C4CCNC4)cc3)c(-c3nnn[nH]3)c2S(N)(=O)=O)CC1 (stereo partly drawn) [Example 587, 4-(((1s,4s)-4-(aminomethyl)cyclohexyl)methyl)-4′-(pyrrolidin-3-yl)-2-(1H-tetrazol-5-yl)-[1,1′-biphenyl]-3-sulfonamide]
NDM-1; [4]
  IC50: 0.798 nM
IMP-1; [5]
  IC50: 2.83 nM
VIM-1; [6]
  IC50: 11.5 nM
[1]; [7]
  Escherichia coli MITC95: 0.7813 µM
[2]; [8]
  Klebsiella pneumoniae MITC95: 6.25 µM
[3]; [9]
  Serratia marcescens MITC95: 1.563 µM

## NS(=O)(=O)c1c(CCCCCO)ccc(CCCCCO)c1-c1nn[nH]n1 [Example 542, 3,6-Bis(5-hydroxypentyl)-2-(2H-tetrazol-5-yl)benzenesulfonamide]
NDM-1; [4]
  IC50: 11.5 nM
IMP-1; [5]
  IC50: 7.9 nM
VIM-1; [6]
  IC50: 6.43 nM
[1]; [7]
  Escherichia coli MITC95: 25 µM
[2]; [8]
  Klebsiella pneumoniae MITC95: 100 µM
[3]; [9]
  Serratia marcescens MITC95: 6.25 µM

## CC(NCc1ccc(-c2cccc(S(N)(=O)=O)c2-c2nnn[nH]2)cc1)c1nn[nH]n1 (stereo not drawn) [Example 353, 2-(1H-tetrazol-5-yl)-4′-({[1-(2H-tetrazol-5-yl)ethyl]amino}methyl)biphenyl-3-sulfonamide]
NDM-1; [10]
  IC50: 4.1 nM
IMP-1; [11]
  IC50: 28 nM
VIM-1; [12]
  IC50: 689 nM
[1]; [13]
  Escherichia coli MITC95: 2.344 µM
[2]; [14]
  Klebsiella pneumoniae MITC95: 100 µM
[3]; [15]
  Serratia marcescens MITC95: 1.172 µM

## N=C(N)N1CCC2(CC1)CCN(c1ccc(C(F)(F)F)c(S(N)(=O)=O)c1-c1nnn[nH]1)CC2 [Example 822, 9-[3-sulfamoyl-2-(1H-tetrazol-5-yl)-4-(trifluoromethyl)phenyl]-3,9-diazaspiro[5.5]undecane-3-carboxamidine]
NDM-1; [16]
  IC50: 1.44 nM
IMP-1; [16]
  IC50: 2.25 nM
VIM-1; [17]
  IC50: 0.195 nM
[1]; [18]
  Escherichia coli MITC95: 0.6406 µM
[2]; [19]
  Klebsiella pneumoniae MITC95: 1.086 µM
[3]; [20]
  Serratia marcescens MITC95: 0.0938 µM

## NC1CCC(N2CCC(c3ccc(-c4ccc(C(F)(F)F)c(S(N)(=O)=O)c4-c4nnn[nH]4)cc3)CC2)C1 (stereo not drawn) [Example 786, 4′-[1-(3-aminocyclopentyl)piperidin-4-yl]-2-(1H-tetrazol-5-y)-4-(trifluoromethyl)biphenyl-3-sulfonamide]
NDM-1; [16]
  IC50: 6.2 nM
IMP-1; [16]
  IC50: 2.08 nM
VIM-1; [21]
  IC50: 12 nM
[1]; [18]
  Escherichia coli MITC95: 1.563 µM
[2]; [19]
  Klebsiella pneumoniae MITC95: 50 µM
[3]; [20]
  Serratia marcescens MITC95: 3.125 µM

## NS(=O)(=O)c1c(C(F)(F)F)ccc([C@H]2CC[C@@H](N)CC2)c1-c1nnn[nH]1 [Example 819, 3-((1s,4s)-4-aminocyclohexyl)-2-(1H-tetrazol-5-yl)-6-(trifluoromethyl)benzenesulfonamide]
NDM-1; [16]
  IC50: 14.3 nM
IMP-1; [16]
  IC50: 97.1 nM
VIM-1; [21]
  IC50: 27.4 nM
[1]; [18]
  Escherichia coli MITC95: 0.8464 µM
[2]; [19]
  Klebsiella pneumoniae MITC95: 3.385 µM
[3]; [20]
  Serratia marcescens MITC95: 1.823 µM

## Cc1cccc(S(N)(=O)=O)c1-c1nnn[nH]1 [Example 150, 3-methyl-2-(1H-tetrazol-5-yl)benzenesulfonamide]
NDM-1; [16]
  IC50: 148 nM
IMP-1; [16]
  IC50: 1940 nM
VIM-1; [21]
  IC50: 5650 nM
[1]
  Escherichia coli expressing NDM-1 (CLB 30016) MITC95: 0.7813 µM
[2]
  Klebsiella pneumoniae expressing VIM-1 (IHMA 599644) MITC95: 200 µM
[3]
  Serratia marcescens expressing IMP-1 (CL5741) MITC95: 6.25 µM

## NS(=O)(=O)c1c(CC2CNC2)ccc(-c2cnc3ccccn23)c1-c1nn[nH]n1 [Example 546, 6-(azetidin-3-ylmethyl)-3-(imidazo[1,2-a]pyridin-3-yl)-2-(2H-tetrazol-5-yl)benzenesulfonamide]
NDM-1; [4]
  IC50: 33.8 nM
IMP-1; [5]
  IC50: 178 nM
VIM-1; [6]
  IC50: 38.6 nM
[1]; [7]
  Escherichia coli MITC95: 1.563 µM
[2]; [8]
  Klebsiella pneumoniae MITC95: 12.5 µM
[3]; [9]
  Serratia marcescens MITC95: 12.5 µM

## NS(=O)(=O)c1cccc(-c2cnc(NCCO)nc2)c1-c1nnn[nH]1 [Example 125, 3-(2-((2-hydroxyethyl)amino)pyrimidin-5-yl)-2-(1H-tetrazol-5-yl)benzenesulfonamide]
NDM-1; [16]
  IC50: 6.55 nM
IMP-1; [16]
  IC50: 326 nM
VIM-1; [17]
  IC50: 172 nM
[1]
  Escherichia coli expressing NDM-1 (CLB 30016) MITC95: 1.953 µM
[2]
  Klebsiella pneumoniae expressing VIM-1 (IHMA 599644) MITC95: 25 µM
[3]
  Serratia marcescens expressing IMP-1 (CL5741) MITC95: 9.375 µM

## NS(=O)(=O)c1c(C(F)(F)F)ccc(-c2cnn3ccccc23)c1-c1nnn[nH]1 [Example 710, 3-pyrazolo[1,5-a]pyridin-3-yl-2-(1H-tetrazol-5-yl)-6-(trifluoromethyl)benzenesulfon-amide]
NDM-1; [4]
  IC50: 0.89 nM
IMP-1; [5]
  IC50: 2.08 nM
VIM-1; [22]
  IC50: 0.168 nM
[1]; [7]
  Escherichia coli MITC95: 6.25 µM
[2]; [8]
  Klebsiella pneumoniae MITC95: 12.5 µM
[3]; [9]
  Serratia marcescens MITC95: 6.25 µM

## CN1CCN(c2ncc(-c3cccc(S(N)(=O)=O)c3-c3nnn[nH]3)cn2)CC1 [Example 128, 3-(2-(4-methylpiperazin-1-yl)pyrimidin-5-yl)-2-(1H-tetrazol-5-yl)benzenesulfonamide]
NDM-1; [16]
  IC50: 7.95 nM
IMP-1; [16]
  IC50: 453 nM
VIM-1; [21]
  IC50: 1140 nM
[1]
  Escherichia coli expressing NDM-1 (CLB 30016) MITC95: 1.563 µM
[2]
  Klebsiella pneumoniae expressing VIM-1 (IHMA 599644) MITC95: >200 µM
[3]
  Serratia marcescens expressing IMP-1 (CL5741) MITC95: 9.375 µM

## Nc1nnc(C2CCN(c3ccnc(S(N)(=O)=O)c3-c3nnn[nH]3)CC2)s1 [Example 216, 4-[4-(5-amino-1,3,4-thiadiazol-2-yl)piperidin-1-yl]-3-(1H-tetrazol-5-yl)pyridine-2-sulfonamide]
NDM-1; [16]
  IC50: 40.4 nM
IMP-1; [16]
  IC50: 456 nM
VIM-1; [17]
  IC50: 96.7 nM
[1]
  Escherichia coli expressing NDM-1 (CLB 30016) MITC95: 1.172 µM
[2]
  Klebsiella pneumoniae expressing VIM-1 (IHMA 599644) MITC95: 18.75 µM
[3]
  Serratia marcescens expressing IMP-1 (CL5741) MITC95: 12.5 µM

## NC1CCC(N[C@H]2CC[C@H](c3ccc(C(F)(F)F)c(S(N)(=O)=O)c3-c3nnn[nH]3)CC2)CC1 (stereo partly drawn) [Example 701, 3-{4-[(4-aminocyclohexyl)amino]cyclohexyl}-2-(1H-tetrazol-5-yl)-6-(trifluoromethyl)benzene sulfonamide]
NDM-1; [4]
  IC50: 15.4 nM
IMP-1; [5]
  IC50: 62.9 nM
VIM-1; [22]
  IC50: 12.7 nM
[1]; [7]
  Escherichia coli MITC95: 0.7813 µM
[2]; [8]
  Klebsiella pneumoniae MITC95: 6.25 µM
[3]; [9]
  Serratia marcescens MITC95: 3.125 µM

## NCc1ccc(-c2ccc(CC3CCNCC3)c(S(N)(=O)=O)c2-c2nn[nH]n2)cc1 [Example 593, 4′-(aminomethyl)-4-(piperidin-4-ylmethyl)-2-(2H-tetrazol-5-yl)biphenyl-3-sulfonamide]
NDM-1; [4]
  IC50: 38.2 nM
IMP-1; [5]
  IC50: 273 nM
VIM-1; [6]
  IC50: 31.6 nM
[1]; [7]
  Escherichia coli MITC95: 1.563 µM
[2]; [8]
  Klebsiella pneumoniae MITC95: 3.125 µM
[3]; [9]
  Serratia marcescens MITC95: 6.25 µM

## NS(=O)(=O)c1cccc(-c2ccc(CN3CCC(CO)C3)cc2)c1-c1nnn[nH]1 (stereo in doubt) [Example 391, 4′-{[(3S)-3-(hydroxymethyl)pyrrolidin-1-yl]methyl}-2-(1H-tetrazol-5-yl)biphenyl-3-sulfonamide]
NDM-1; [10]
  IC50: 18.9 nM
IMP-1; [11]
  IC50: 348 nM
VIM-1; [12]
  IC50: 401 nM
[1]; [13]
  Escherichia coli MITC95: 1.172 µM
[2]; [14]
  Klebsiella pneumoniae MITC95: 50 µM
[3]; [15]
  Serratia marcescens MITC95: 2.344 µM

## NS(=O)(=O)c1cccc(-c2ccc(CN3C[C@H](O)C[C@H]3CO)cc2)c1-c1nnn[nH]1 [Example 387, 4′-{[(2S,4R)-4-hydroxy-2-(hydroxymethyl)pyrrolidin-1-yl]methyl}-2-(1H-tetrazol-5-yl)biphenyl-3-sulfonamide]
NDM-1; [10]
  IC50: 10.6 nM
IMP-1; [11]
  IC50: 145 nM
VIM-1; VIM-1 enzyme, CCF2-FA fluorescence assay, read-out: VIM-1 IC50
  IC50: 445 nM
[1]; [13]
  Escherichia coli MITC95: 2.344 µM
[2]; [14]
  Klebsiella pneumoniae MITC95: 100 µM
[3]; [15]
  Serratia marcescens MITC95: 3.125 µM

## Nc1ccnc2ccc(-c3cccc(S(N)(=O)=O)c3-c3nnn[nH]3)cc12 [Example 401, 3-(4-amino-6-quinolyl)-2-(1H-tetrazol-5-yl)benzenesulfonamide]
NDM-1; [10]
  IC50: 7.31 nM
IMP-1; [11]
  IC50: 646 nM
VIM-1; [12]
  IC50: 7.57 nM
[1]; [13]
  Escherichia coli MITC95: 0.09375 µM
[2]; [14]
  Klebsiella pneumoniae MITC95: 0.8906 µM
[3]; [15]
  Serratia marcescens MITC95: 6.25 µM

## NS(=O)(=O)c1c(CC[C@H]2CC[C@@H](N)CC2)ccc(-c2ccc(C3CNC3)cc2)c1-c1nnn[nH]1 [Example 600, 4-(2-((1s,4r)-4-aminocyclohexyl)ethyl)-4′-(azetidin-3-yl)-2-(1H-tetrazol-5-yl)-[1,1′-biphenyl]-3-sulfonamide]
NDM-1; [4]
  IC50: 2.56 nM
IMP-1; [5]
  IC50: 43.8 nM
VIM-1; [22]
  IC50: 0.861 nM
[1]; [7]
  Escherichia coli MITC95: 1.563 µM
[2]; [8]
  Klebsiella pneumoniae MITC95: 3.125 µM
[3]; [9]
  Serratia marcescens MITC95: 6.25 µM
